Test: Liquid crystal dispersion system formation with changed component (i)
Type: physicochemical
Conditions: component (i): phytosterol 2, cetanol 5, Table 6 component 3, δ-tocopherol 0.1 parts by weight
Description: The racemic ceramide was obtained by converting a racemic sphinganine obtained by the method by D. Shapiro., et al., (J. Am. Chem. Soc., 80, 2170(1958)) into its stearoyl form.

CCCCCCCCCCCCCCCCCC(=O)NC(CO)C(O)CCCCCCCCCCCCCCC (racemic) [racemic ceramide]
System morphology: difficult to form a stable liquid crystal dispersion system
